Patent US20140155445A1, “Compounds and Methods for Treating Cancer and Diseases of the Central Nervous System” (Osta Biotechnologies Inc., priority 2007, published 2014)
Entries after “also recorded” stand apart in the source; their conditions may differ.

Test system: SKMEL-V+ tumors (blood vessels, CD31 positive cells)
Experiment: CD31 / H&E staining, microvessel density of SKMEL-V+ tumors
Assay type: in vivo, mouse
Settings: SKMEL-V+ tumors from treated mice; hydrochloride
Method: SKMEL-V (human melanoma cells). SKMEL-V cells were derived from SKMEL-24 cells (ATCC) by overexpression of mouse VEGF. […] Tumors were either snap frozen in liquid nitrogen or fixed in 10% buffered formalin and embedded in paraffin. […] BD PharMingen, San Diego, Calif.). […] Sections were rehydrated in PBS and then blocked with 5% normal goat serum for 1 h. The sections were then incubated overnight at 4° C. with CD31 antibody diluted 1:25 in 3% BSA-PBS. […] Paraffin-embedded material was used for Harris' hematoxylin. Microvessel density was quantified using a method described by Weidner et al ([…], and Folkman […]. Med, 1991; 324:1-8). Briefly, randomly vascularized areas were selected (hot spots) under 40× field and 100× fields. Then a 400× field was used to count microvessels in each of these areas. Single endothelial cells or clusters of endothelial cells with or without lumen were considered to be individual vessels. […] All slides were examined blindly with no prior knowledge of the treatment status.

SMILES: Brc1ccc(CCC2(Cn3ccnc3)OCCO2)cc1.Cl [QC-56, 1-((2-(2-(4-Bromophenyl)ethyl)-1,3-dioxolan-2-yl)methyl)-1H-imidazole hydrochloride]
- tumor vascularization (vessel count, size, CD31): significant reduction in the density of blood vessels; also recorded: significant reduction in vascularization; also recorded: significant decrease in the size and number of blood vessels
